Reference: ChEMBL document CHEMBL4715821, “Discovery of 4-ethoxy-7H-pyrrolo[2,3-d]pyrimidin-2-amines as potent, selective and orally bioavailable LRRK2 inhibitors” (Bioorg Med Chem Lett, 2018)

What was measured:
[1] = molecular target: Non-receptor tyrosine-protein kinase TNK1 (Homo sapiens) (UniProt Q13470); experiment: Inhibition of wild-type human full length TNK1 (M1 to P661 residues) expressed in bacterial expression system assessed as residual activity at 1 uM by Kinomescan method relative to control
[2] = molecular target: Testis-specific serine/threonine-protein kinase 1 (Homo sapiens) (UniProt Q9BXA7); experiment: Inhibition of wild-type human full length TSSK1B (M1 to Q367 residues) expressed in bacterial expression system assessed as residual activity at 1 uM by Kinomescan method relative to control
[3] = molecular target: Tyrosine-protein kinase Srms (Homo sapiens) (UniProt Q9H3Y6); experiment: Inhibition of wild-type human partial length SRMS (L208 to P488 residues) expressed in mammalian expression system assessed as residual activity at 1 uM by Kinomescan method relative to control
[4] = molecular target: Tyrosine-protein kinase Fer (Homo sapiens) (UniProt P16591); experiment: Inhibition of wild-type human partial length FER (S542 to T822 residues) expressed in bacterial expression system assessed as residual activity at 1 uM by Kinomescan method relative to control
[5] = molecular target: Calcium/calmodulin-dependent protein kinase type II subunit beta (Homo sapiens) (UniProt Q13554); experiment: Inhibition of wild-type human partial length CAMK2B (M1 to Q380 residues) expressed in bacterial expression system assessed as residual activity at 1 uM by Kinomescan method relative to control
[6] = molecular target: Protein kinase C zeta type (Homo sapiens) (UniProt Q05513); experiment: Inhibition of PKCzeta (unknown origin) assessed as residual activity at 1 uM by Kinomescan method relative to control
Sequence of Protein kinase C zeta type (Homo sapiens) (Q05513 whole entry, the tested form may be a part): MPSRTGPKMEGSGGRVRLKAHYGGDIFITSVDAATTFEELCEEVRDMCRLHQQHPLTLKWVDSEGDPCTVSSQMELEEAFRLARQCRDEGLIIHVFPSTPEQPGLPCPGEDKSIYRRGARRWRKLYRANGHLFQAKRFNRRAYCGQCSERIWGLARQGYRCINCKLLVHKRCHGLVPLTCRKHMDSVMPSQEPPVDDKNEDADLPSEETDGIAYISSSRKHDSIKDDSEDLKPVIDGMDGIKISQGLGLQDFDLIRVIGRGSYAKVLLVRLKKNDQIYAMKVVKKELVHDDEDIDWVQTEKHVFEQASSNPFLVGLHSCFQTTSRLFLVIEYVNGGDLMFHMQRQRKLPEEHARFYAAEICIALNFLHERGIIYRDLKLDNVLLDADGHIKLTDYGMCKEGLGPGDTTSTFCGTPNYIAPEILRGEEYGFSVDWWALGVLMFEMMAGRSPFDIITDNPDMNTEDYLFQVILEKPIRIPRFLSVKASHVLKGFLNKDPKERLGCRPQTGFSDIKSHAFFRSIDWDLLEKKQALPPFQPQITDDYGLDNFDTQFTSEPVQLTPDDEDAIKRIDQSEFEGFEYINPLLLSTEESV

[7] = molecular target: Serine/threonine-protein kinase Nek9 (Homo sapiens) (UniProt Q8TD19); experiment: Inhibition of wild-type human partial length NEK9 (P32 to R328 residues) expressed in bacterial expression system assessed as residual activity at 1 uM by Kinomescan method relative to control
Sequence of Serine/threonine-protein kinase Nek9 (Homo sapiens) (Q8TD19 whole entry, the tested form may be a part): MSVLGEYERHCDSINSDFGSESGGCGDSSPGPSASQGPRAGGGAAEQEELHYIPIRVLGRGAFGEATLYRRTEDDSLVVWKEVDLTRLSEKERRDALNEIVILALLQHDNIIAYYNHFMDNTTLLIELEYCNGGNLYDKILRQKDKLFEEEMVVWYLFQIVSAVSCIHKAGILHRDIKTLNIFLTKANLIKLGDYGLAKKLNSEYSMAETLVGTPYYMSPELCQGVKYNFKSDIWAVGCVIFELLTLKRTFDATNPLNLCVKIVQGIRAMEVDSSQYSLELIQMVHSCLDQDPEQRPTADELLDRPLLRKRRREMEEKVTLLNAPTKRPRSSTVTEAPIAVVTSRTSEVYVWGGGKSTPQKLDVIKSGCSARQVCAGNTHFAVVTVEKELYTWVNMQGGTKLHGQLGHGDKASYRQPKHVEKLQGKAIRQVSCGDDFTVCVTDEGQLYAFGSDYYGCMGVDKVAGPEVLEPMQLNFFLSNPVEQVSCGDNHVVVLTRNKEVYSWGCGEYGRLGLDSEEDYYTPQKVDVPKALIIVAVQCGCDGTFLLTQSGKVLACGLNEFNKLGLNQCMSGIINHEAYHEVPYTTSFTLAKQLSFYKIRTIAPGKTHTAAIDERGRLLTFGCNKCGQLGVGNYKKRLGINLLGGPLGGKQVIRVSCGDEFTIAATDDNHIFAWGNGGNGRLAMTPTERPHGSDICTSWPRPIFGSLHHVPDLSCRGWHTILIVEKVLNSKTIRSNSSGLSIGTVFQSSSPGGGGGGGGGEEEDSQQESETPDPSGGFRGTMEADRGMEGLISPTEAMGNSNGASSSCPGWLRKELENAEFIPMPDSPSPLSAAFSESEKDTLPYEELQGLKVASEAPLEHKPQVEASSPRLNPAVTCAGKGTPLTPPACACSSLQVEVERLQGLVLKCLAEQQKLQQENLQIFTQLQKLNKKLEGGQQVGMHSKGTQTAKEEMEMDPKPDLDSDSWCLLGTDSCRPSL

[8] = molecular target: Dual serine/threonine and tyrosine protein kinase (Homo sapiens) (UniProt Q6XUX3); experiment: Inhibition of wild-type human full length RIPK5 (M1 to T929 residues) expressed in mammalian expression system assessed as residual activity at 1 uM by Kinomescan method relative to control
[9] = molecular target: Glycogen synthase kinase-3 beta (Homo sapiens) (UniProt P49841); experiment: Inhibition of wild-type human full length GSK3B (M1 to T433 residues) expressed in mammalian expression system assessed as residual activity at 1 uM by Kinomescan method relative to control
Sequence of Glycogen synthase kinase-3 beta (Homo sapiens) (P49841 whole entry, looked up, the tested form may be a part): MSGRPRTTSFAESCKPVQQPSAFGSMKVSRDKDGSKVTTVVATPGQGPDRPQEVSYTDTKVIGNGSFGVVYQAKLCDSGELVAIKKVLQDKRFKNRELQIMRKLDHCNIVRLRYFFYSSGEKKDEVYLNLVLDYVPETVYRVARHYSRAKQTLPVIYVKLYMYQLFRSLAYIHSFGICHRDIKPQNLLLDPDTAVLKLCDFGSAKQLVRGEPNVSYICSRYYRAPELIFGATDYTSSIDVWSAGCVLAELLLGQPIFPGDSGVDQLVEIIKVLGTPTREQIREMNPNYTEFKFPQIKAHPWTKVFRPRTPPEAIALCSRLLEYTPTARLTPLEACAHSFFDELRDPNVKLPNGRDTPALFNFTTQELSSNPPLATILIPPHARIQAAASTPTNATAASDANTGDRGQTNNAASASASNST

[10] = molecular target: Tyrosine-protein kinase ZAP-70 (Homo sapiens) (UniProt P43403); experiment: Inhibition of wild-type human partial length ZAP70 (D20 to G299 residues) expressed in mammalian expression system assessed as residual activity at 1 uM by Kinomescan method relative to control
Sequence of Tyrosine-protein kinase ZAP-70 (Homo sapiens) (P43403 whole entry, the tested form may be a part): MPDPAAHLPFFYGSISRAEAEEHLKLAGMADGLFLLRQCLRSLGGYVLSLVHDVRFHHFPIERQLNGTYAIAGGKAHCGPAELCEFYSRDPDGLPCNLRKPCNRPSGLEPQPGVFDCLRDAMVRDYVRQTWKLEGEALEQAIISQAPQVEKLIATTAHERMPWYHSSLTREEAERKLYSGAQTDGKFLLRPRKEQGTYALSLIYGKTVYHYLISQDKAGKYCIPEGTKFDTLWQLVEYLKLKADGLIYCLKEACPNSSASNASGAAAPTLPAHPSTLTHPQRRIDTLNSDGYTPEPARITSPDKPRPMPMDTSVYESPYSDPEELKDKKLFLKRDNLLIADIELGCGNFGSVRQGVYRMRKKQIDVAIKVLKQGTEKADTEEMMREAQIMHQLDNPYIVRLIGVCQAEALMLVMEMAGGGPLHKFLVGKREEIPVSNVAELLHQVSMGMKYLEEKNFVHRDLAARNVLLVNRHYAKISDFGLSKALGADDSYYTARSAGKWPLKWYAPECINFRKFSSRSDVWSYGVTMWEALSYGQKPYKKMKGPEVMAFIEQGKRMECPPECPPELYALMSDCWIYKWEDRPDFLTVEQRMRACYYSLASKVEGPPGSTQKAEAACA

[11] = molecular target: Ribosomal protein S6 kinase alpha-3 (Homo sapiens) (UniProt P51812); experiment: Inhibition of wild-type human partial length N-terminal RSK2 kinase domain 1 (M1 to D394 residues) expressed in mammalian expression system assessed as residual activity at 1 uM by Kinomescan method relative to control
Sequence of Ribosomal protein S6 kinase alpha-3 (Homo sapiens) (P51812 whole entry, the tested form may be a part): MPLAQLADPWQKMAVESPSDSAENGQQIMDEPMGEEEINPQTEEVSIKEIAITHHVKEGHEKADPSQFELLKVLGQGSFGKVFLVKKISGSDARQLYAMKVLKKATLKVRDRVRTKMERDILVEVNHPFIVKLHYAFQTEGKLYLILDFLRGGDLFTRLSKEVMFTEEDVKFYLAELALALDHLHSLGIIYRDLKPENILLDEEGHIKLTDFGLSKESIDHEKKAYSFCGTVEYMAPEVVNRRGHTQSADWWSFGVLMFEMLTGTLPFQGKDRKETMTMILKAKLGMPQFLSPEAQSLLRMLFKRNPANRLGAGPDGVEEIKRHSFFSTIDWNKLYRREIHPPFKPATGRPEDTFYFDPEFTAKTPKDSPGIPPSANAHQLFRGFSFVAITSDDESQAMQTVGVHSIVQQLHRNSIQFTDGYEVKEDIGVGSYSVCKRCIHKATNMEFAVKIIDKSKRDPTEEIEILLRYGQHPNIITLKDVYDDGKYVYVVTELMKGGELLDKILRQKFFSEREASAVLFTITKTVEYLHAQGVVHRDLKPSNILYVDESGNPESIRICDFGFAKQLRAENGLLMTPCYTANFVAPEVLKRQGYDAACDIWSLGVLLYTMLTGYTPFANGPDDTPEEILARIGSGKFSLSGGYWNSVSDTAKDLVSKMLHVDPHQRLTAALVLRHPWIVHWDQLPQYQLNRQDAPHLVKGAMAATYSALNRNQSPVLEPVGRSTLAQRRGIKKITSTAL

[12] = molecular target: Serine/threonine-protein kinase BRSK1 (Homo sapiens) (UniProt Q8TDC3); experiment: Inhibition of wild-type human partial length BRSK1 (M1 to E754 residues) expressed in bacterial expression system assessed as residual activity at 1 uM by Kinomescan method relative to control
Sequence of Serine/threonine-protein kinase BRSK1 (Homo sapiens) (Q8TDC3 whole entry, the tested form may be a part): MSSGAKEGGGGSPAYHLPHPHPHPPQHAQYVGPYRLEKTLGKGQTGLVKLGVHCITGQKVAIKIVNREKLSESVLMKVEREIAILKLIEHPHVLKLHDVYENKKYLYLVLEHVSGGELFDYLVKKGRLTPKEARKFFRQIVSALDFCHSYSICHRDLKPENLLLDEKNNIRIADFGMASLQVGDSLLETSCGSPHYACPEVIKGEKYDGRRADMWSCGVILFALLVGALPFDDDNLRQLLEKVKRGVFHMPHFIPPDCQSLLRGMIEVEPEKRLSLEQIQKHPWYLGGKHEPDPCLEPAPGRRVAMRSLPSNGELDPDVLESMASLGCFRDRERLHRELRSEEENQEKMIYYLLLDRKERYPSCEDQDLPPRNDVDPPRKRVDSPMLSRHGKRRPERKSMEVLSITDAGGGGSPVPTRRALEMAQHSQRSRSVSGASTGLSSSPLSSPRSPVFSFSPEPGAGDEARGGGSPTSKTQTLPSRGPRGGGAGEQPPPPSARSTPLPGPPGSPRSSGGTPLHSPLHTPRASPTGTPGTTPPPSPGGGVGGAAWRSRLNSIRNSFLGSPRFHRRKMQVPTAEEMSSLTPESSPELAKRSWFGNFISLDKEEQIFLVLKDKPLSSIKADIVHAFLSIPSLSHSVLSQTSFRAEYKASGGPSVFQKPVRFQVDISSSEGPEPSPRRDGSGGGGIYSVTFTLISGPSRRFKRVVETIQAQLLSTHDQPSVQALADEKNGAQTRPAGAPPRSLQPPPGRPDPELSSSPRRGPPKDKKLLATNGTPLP

[13] = molecular target: RAC-gamma serine/threonine-protein kinase (Homo sapiens) (UniProt Q9Y243); experiment: Inhibition of wild-type human partial length AKT3 expressed in bacterial expression system assessed as residual activity at 1 uM by Kinomescan method relative to control
[14] = Artificial membrane permeability by PAMPA method; format: ADME; conditions: read-out: permeability
[15] = molecular target: Tau-tubulin kinase 2 (Homo sapiens) (UniProt Q6IQ55); experiment: Inhibition of TTBK2 (unknown origin) assessed as residual activity at 1 uM by Kinomescan method relative to control
[16] = molecular target: G protein-coupled receptor kinase 4 (Homo sapiens) (UniProt P32298); experiment: Inhibition of wild type human full length GRK4 (M1 to C578 residues) expressed in bacterial expression system assessed as residual activity at 1 uM by Kinomescan method relative to control
Sequence of G protein-coupled receptor kinase 4 (Homo sapiens) (P32298 whole entry, looked up, the tested form may be a part): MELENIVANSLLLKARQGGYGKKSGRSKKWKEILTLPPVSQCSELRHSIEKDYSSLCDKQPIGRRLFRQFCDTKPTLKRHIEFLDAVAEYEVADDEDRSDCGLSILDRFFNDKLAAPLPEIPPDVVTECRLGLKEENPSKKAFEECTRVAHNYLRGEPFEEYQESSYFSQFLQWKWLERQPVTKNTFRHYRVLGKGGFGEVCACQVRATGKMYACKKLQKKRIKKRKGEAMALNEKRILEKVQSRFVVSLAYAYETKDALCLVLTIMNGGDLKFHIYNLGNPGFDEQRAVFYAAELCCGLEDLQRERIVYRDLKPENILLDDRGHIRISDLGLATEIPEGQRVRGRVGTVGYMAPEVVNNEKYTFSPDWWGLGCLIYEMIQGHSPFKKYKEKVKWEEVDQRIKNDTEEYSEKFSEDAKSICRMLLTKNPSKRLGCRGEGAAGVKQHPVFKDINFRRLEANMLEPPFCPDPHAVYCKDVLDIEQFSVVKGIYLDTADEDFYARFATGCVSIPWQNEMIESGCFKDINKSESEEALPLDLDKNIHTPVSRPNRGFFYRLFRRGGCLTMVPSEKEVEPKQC

[17] = molecular target: LIM domain kinase 1 (Homo sapiens) (UniProt P53667); experiment: Inhibition of wild-type human full length LIMK1 (M1 to D647 residues) expressed in bacterial expression system assessed as residual activity at 1 uM by Kinomescan method relative to control
[18] = molecular target: Casein kinase II subunit alpha (Homo sapiens) (UniProt P68400); experiment: Inhibition of CK2alpha (unknown origin) assessed as residual activity at 1 uM by Kinomescan method relative to control
[19] = molecular target: Tyrosine-protein kinase JAK3 (Homo sapiens) (UniProt P52333); experiment: Inhibition of wild type human partial length JAK3 (I781 to S1124 residues) expressed in mammalian expression system assessed as residual activity at 1 uM by Kinomescan method relative to control
[20] = molecular target: Calcium/calmodulin-dependent protein kinase type IV (Homo sapiens) (UniProt Q16566); experiment: Inhibition of wild-type human partial length CAMK4 (A22 to A322 residues) expressed in bacterial expression system assessed as residual activity at 1 uM by Kinomescan method relative to control
[21] = molecular target: Tau-tubulin kinase 1 (Homo sapiens) (UniProt Q5TCY1); experiment: Inhibition of TTBK1 (unknown origin) assessed as residual activity at 1 uM by Kinomescan method relative to control
[22] = molecular target: Casein kinase I isoform gamma-1 (Homo sapiens) (UniProt Q9HCP0); experiment: Inhibition of CK1g1 (unknown origin) assessed as residual activity at 1 uM by Kinomescan method relative to control
[23] = In vivo inhibition of LRRK2 in Han-Wistar rat assessed as reduction in Ser935 phosphorylation in brain at 10 mg/kg, po by Western blot analysis; format: functional; set-up: scale not given: the % may be the effect or the level left
[24] = molecular target: Protein kinase C eta type (Homo sapiens) (UniProt P24723); experiment: Inhibition of PKCeta (unknown origin) assessed as residual activity at 1 uM by Kinomescan method relative to control
[25] = molecular target: Epidermal growth factor receptor (Homo sapiens) (UniProt P00533); experiment: Inhibition of wild-type human partial length EGFR (R669 to V1011 residues) expressed in bacterial expression system assessed as residual activity at 1 uM by Kinomescan method relative to control
[26] = molecular target: Serine/threonine-protein kinase PAK 3 (Homo sapiens) (UniProt O75914); experiment: Inhibition of wild-type human full length PAK3 (M1 to R544 residues) expressed in bacterial expression system assessed as residual activity at 1 uM by Kinomescan method relative to control
[27] = Metabolic stability in human liver microsomes assessed as intrinsic clearance; format: ADME, Microsome
[28] = molecular target: Mitogen-activated protein kinase 15 (Homo sapiens) (UniProt Q8TD08); experiment: Inhibition of ERK7 (unknown origin) assessed as residual activity at 1 uM by Kinomescan method relative to control
[29] = molecular target: MAP kinase-activated protein kinase 5 (Homo sapiens) (UniProt Q8IW41); experiment: Inhibition of wild-type human partial length MAPKAPK5 (M1 to D322 residues) expressed in mammalian expression system assessed as residual activity at 1 uM by Kinomescan method relative to control

## CCOc1nc(Nc2ccc(C(=O)N3CCOCC3)cc2OC)nc2[nH]ccc12
[1]
  Activity: 46.5%
[2]
  Activity: 2.41%
[3]
  Activity: 108%
[4]
  Activity: 36.5%
[5]
  Activity: 92.6%
[6]
  Activity: 99.9%
[7]
  Activity: 100%
[8]
  Activity: 111%
[9]
  Activity: 95.9%
[10]
  Activity: 124%
[11]
  Activity: 65.1%
[12]
  Activity: 134%
[13]
  Activity: 98.8%
[14]
  Papp: 48 ×10⁻⁶ cm/s
[15]
  Activity: 104%
[16]
  Activity: 84.6%
[17]
  Activity: 98%
[18]
  Activity: 79.9%
[19]
  Activity: 109%
[20]
  Activity: 90.6%
[21]
  Activity: 103%
[22]
  Activity: 95%
[23]
  Activity: 20%
[24]
  Activity: 99.2%
[25]
  Activity: 99.6%
[26]
  Activity: 96.4%
[27]
  CLH: 1.1 mL/min/g
[28]
  Activity: 99%
[29]
  Activity: 81.8%
